Data published in patent US20180201647A1, “Peptoid” (The University of Durham, priority 2015, published 2018).
Where two headings read alike, the source gives them in different places. Where a SMILES comes first, the peptide text is derived from it. [ ]: non-standard residue; d: D form. Nspe = C[C@H](NCC(=O)O)c1ccccc1; NhArg = N=C(N)NCCCCNCC(=O)O; Nlys = NCCCCNCC(=O)O

Experiments:
Assay type in all cases: cell-based
[1] = tested on: Escherichia coli K12 W3110
Experimental: (§1) Species used in MIC assays included gram-negative Escherichia coli K12 W3110, Pseudomonas aeruginosa laboratory strain PAO2 and Serratia marcescens laboratory strain and gram-positive Staphylococcus aureus NCTC 6571 and Micrococcus luteus laboratory strain.
(§2) Bacterial cultures were prepared by streaking the bacterial strains on to agar plates with an inoculation loop and incubating overnight at 37° C. A single colony was then selected and placed in 5 mL of Iso-Sensitest broth using an inoculation loop and incubated at 37° C. with shaking overnight.
(§3) MIC values were attained according to the protocol described by J. M. Andrews et al. [J. M. Andrews, J. Antimicrob. Chemother., 2001, 48, 5-16] and were conducted in 96-well microtitre plates in triplicate. 10-50 μL of each overnight culture was inoculated into 1.2 mL of Iso-Sensitest broth and grown at 37° C. with shaking. […] The inoculum was diluted ten-fold with Iso-Sensitest broth before use (to ˜10^3 cfu/spot). Peptide solutions were initially dissolved in DMSO (5 mg mL^−1) and then diluted further with Iso-Sensitest broth to achieve a concentration range of 4 mgL^−1 to 512 mgL^−1 using 2-fold serial dilutions. Samples were vortexed between dilutions where necessary to aid dissolution. 50 μL of inoculum and 50 μL of peptide solution were added to each test well to achieve a final concentration range of 2 mgL^−1 to 256 mgL^−1. Separate dilutions of ampicillin and DMSO were made up in a similar manner to act as a positive antibacterial control and a +DMSO control, respectively. 50 μL of inoculum and 50 μL of Iso-Sensitest broth were used as a positive control and 100 μL of inoculum was used as a negative control. Positive and negatives controls were conducted multiple times in parallel per plate. […] Quantitative data were attained as A650nm values using a BioTek® Synergy™ H4 Hybrid Multi-Mode Microplate Reader.

[2] = tested on: Pseudomonas aeruginosa laboratory strain PAO2
Experimental: as §1, §2, §3

[3] = tested on: Serratia marcescens laboratory strain; details: 16 h
Experimental: as §1, §2, §3

[4] = tested on: Staphylococcus aureus NCTC 6571
Experimental: as §1, §2, §3

[5] = tested on: E. coli (ATCC 29522) biofilm; assay: Single species biofilm treatment, crystal violet assay; details: 100 μM peptoid, 24 hours, FIG. 17C
Experimental: C. albicans (NCTC 3179) was subcultured aerobically on Sabouraud agar plates and propagated in yeast peptone dextrose broth. E. coli (ATCC 29522) and S. aureus (NCTC 6571) were grown on blood agar plates and propagated in brain heart infusion (BHI) broth.
Overnight cultures of C. albicans were washed and resuspended in a modified RPMI-1640 (Sigma-Aldrich, St Louis, USA) medium to yield an inoculum of 1.0×10^6 cells/ml. Overnight cultures of S. aureus or E. coli were washed and resuspended in brain heart infusion broth (Oxoid, Basingstoke, UK) to yield an inoculum of 5.0×10^6 cells/ml. A total volume of 100 μl of each inoculum was added to microtitre plate wells (Thermo Fisher Scientific, Roskilde, Denmark). An initial biofilm was allowed to form for 4 hours. Wells were washed three times with 200 μl PBS to facilitate removal of planktonic cells and the biofilms were then treated with 100 μM of peptoids 1-4 in the appropriate broth. Plates were incubated for a further 24 hours to allow biofilm maturation. After removal of planktonic cells by washing, biofilms were quantified by the crystal violet assay or by PMA-qPCR.
Biofilm quantification by crystal violet assay Washed biofilms were fixed with 100 μl methanol for 10 minutes. Following removal of methanol, the wells were air dried and stained with crystal violet solution (Clin-Tech Ltd, Guildford, UK) for 20 minutes at room temperature. Excess stain was removed by washing, the plate was then air dried and bound crystal violet was re-solubilised in 16 μl 33% acetic acid prior to reading at 570 nm in a microtitre plate reader (Tecan GENios, Ziirich, Switzerland).

[6] = tested on: Leishmania mexicana (M379)
Experimental: Leishmania mexicana (M379) promastigote parasites were maintained at 26° C. in Schneider's Insect medium (Sigma-Aldrich) supplemented with heat-inactivated foetal bovine sera (FBS, 15%; Biosera Ltd). Cells were counted using a Neubauer Improved Haemocytometer. Promastigotes were transformed into axenic amastigotes by a pH and temperature shift as previously described. A culture of recently transformed (three days) promastigotes in the late log phase was transferred into Schneider's Insect medium supplemented with 20% heat-inactivated FBS (pH 5.5) at 5×10^5 parasites/mL. After 6 days, the parasites were in the metacyclic stage and used for transformation to amastigote-like forms by transfer in the same medium at 32° C. at 5×10^5 parasites/mL. After additional 5-7 days, the parasites should be in the amastigote stage and be ready for cytotoxicity studies and infections.
Cytotoxicity analyses were performed in 96-well plates (Costar, Fisher Scientific) using Alamar Blue (Invitrogen) for cell viability detection as previously described.
Promastigote and amastigote L. mexicana were pre-incubated with the compounds in triplicate (5 mM stock solutions in DMSO; Amphotericin B was used as a positive control; untreated parasites with DMSO as a negative control) in 50 μl of the corresponding media at 4×106 mL-1 for 1 hour. Afterwards, 40 μl were removed from each well before the addition of 90 μl of the corresponding media, followed by incubation for 24 hours at 4×105 mL-1. Then, 10 μl Alamar Blue solution (Invitrogen) was added to each well for an incubation of 4 hours prior to assessing cell viability using a fluorescent plate reader (Biotek; Ex 560 nm/Em 600 nm). To investigate the effects of serum on the efficacy of the peptoids, the assay described above was modified using serum-free medium for the pre-incubation time. For these assays, the parasites were washed three times in serum-free medium before adding them to the compound solutions. All of the experiments described above were carried out on a minimum of two separate occasions to ensure a robust data set was collected.

[7] = second figure of cell, 37° C., 16 h, Iso-Sensitest broth

With `C[C@@H](c1ccccc1)N(CC(N)=O)C(=O)CN(C(=O)CN(CCCCN)C(=O)CN(C(=O)CN(C(=O)CN(CCCCN)C(=O)CN(C(=O)CN(C(=O)CN(CCCCNC(=N)N)C(=O)CN(C(=O)CN(C(=O)CNCCCCNC(=N)N)[C@@H](C)c1ccccc1)[C@@H](C)c1ccccc1)[C@@H](C)c1ccccc1)[C@@H](C)c1ccccc1)[C@@H](C)c1ccccc1)[C@@H](C)c1ccccc1)[C@@H](C)c1ccccc1` [Peptoid 2, (NhArg-Nspe-Nspe)2(NLys-Nspe-Nspe)2] (H-[NhArg][Nspe][Nspe][NhArg][Nspe][Nspe][Nlys][Nspe][Nspe][Nlys][Nspe][Nspe]-NH2; N-terminus assumed) the “MIC E. coli” value ([1]; K12, 16 h) was 17 µM, the “MIC E. coli” value [1, 7] was 32 mgL^−1 and the “MIC P. aeruginosa” value ([2]; laboratory strain PAO2, 16 h) was 17 µM. The “MIC P. aeruginosa” value [2, 7] was 32 mgL^−1, the “MIC S. marcescens” value ([3]; laboratory strain) was 134 µM and the “MIC S. marcescens” value ([3]; second figure of cell, 37° C., Iso-Sensitest broth) was 256 mgL^−1. The “MIC S. aureus” value ([4]; NCTC 6571, 16 h) was 17 µM, the “MIC S. aureus” value [4, 7] was 32 mgL^−1 and the “activity against the E. coli biofilm” value [5] was “strongest anti-bacterial activity”. The IC50 ([6]; parasite stage not given, read-out: IC50 L. mexicana) was 34 µM and the “active against L. mexicana” value ([6]; statement in words) was “active”.
